Source: patent publication EP4644396A1 (Visionpharma (Nantong) Co., Ltd, priority 2022, dated 2024)
Like-named read-outs stand apart in the source and are kept apart here.

What was measured:
human TLR7 = molecular target: T1, human TLR7 (Homo sapiens, UniProt Q9NYK1); test: HEK-Blue hTLR7 SEAP reporter gene inhibition assay; assay type: cell-based
T1 sequence (Q9NYK1 27-1049): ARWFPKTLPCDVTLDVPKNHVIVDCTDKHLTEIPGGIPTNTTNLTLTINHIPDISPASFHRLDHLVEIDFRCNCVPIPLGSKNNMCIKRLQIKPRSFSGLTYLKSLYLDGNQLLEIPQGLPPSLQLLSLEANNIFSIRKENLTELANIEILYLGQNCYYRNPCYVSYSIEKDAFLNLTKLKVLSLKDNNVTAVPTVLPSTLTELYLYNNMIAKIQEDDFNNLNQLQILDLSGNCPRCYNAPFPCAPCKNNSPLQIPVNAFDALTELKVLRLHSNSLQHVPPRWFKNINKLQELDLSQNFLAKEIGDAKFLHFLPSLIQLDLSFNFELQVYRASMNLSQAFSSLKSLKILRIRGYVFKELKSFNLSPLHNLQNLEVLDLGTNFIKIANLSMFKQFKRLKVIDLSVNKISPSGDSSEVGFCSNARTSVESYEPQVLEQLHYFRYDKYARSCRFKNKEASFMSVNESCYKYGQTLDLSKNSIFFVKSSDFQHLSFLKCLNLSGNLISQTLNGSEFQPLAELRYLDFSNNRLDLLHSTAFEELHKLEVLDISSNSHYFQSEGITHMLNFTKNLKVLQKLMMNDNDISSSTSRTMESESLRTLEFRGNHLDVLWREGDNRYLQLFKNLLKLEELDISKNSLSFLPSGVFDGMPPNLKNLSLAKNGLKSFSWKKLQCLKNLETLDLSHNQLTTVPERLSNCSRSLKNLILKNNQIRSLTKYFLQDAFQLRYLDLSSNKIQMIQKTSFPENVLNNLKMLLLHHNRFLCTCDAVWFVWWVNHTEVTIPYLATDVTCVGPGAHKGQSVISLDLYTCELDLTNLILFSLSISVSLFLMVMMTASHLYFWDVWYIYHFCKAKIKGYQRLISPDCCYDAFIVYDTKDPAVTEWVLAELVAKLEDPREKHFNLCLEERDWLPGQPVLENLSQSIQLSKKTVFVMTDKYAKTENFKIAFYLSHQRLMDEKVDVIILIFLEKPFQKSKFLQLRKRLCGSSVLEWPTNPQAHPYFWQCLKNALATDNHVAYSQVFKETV
Description: (§1) HEK-Blue cells with stable expression of human TLR7 or TLR8 were used in the evaluation of inhibitory activity of compounds in the present invention against TLR7 or TLR8, by using its ability to induce the SEAP reporting gene under the control of the fusion of IFN-β minimum promoters into five NF-κB and ap-1 binding sites, as follows: hTLR7 HEK-Blue cells (Invivogen, 80, 000 cells per well) or hTLR8 HEK-Blue cells (60, 000 cells per well) were added to a 96-well cell culture plate. A solution of the testing compounds were added to each well, with the final concentration of tested compounds in the medium ranged from 0.001 to 36 µM and the culture was incubated for 15 minutes. M5049 was used as positive controls in the testing.
(§2) Then a TLR7 ligand (Gardiquimod, purchased from MedChemExpress, with final concentration of ligand in cell culture medium kept at 10 µM) or a TLR8 ligand (purchased from MedChemExpress with final concentration in cell culture media at 10 µM) and the culture was incubated for 20 hours. According to the manufacturer's instructions, a HEK-Blue reagent Quanti-blue (Invivogen) was used to detect the SEAP levels in cell cultures. The half […] concentration or IC50 was calculated by using GraphPad Prism. […] Table 1: Activities of examples in this invention to hTLR7/8 in HEK-Blue Cells

human TLR8 = molecular target: T2, human TLR8 (Homo sapiens, UniProt Q9NR97); test: HEK-Blue hTLR8 SEAP reporter gene inhibition assay; assay type: cell-based
T2 construct: expressed in transfected cells
T2 sequence (Q9NR97 27-1041): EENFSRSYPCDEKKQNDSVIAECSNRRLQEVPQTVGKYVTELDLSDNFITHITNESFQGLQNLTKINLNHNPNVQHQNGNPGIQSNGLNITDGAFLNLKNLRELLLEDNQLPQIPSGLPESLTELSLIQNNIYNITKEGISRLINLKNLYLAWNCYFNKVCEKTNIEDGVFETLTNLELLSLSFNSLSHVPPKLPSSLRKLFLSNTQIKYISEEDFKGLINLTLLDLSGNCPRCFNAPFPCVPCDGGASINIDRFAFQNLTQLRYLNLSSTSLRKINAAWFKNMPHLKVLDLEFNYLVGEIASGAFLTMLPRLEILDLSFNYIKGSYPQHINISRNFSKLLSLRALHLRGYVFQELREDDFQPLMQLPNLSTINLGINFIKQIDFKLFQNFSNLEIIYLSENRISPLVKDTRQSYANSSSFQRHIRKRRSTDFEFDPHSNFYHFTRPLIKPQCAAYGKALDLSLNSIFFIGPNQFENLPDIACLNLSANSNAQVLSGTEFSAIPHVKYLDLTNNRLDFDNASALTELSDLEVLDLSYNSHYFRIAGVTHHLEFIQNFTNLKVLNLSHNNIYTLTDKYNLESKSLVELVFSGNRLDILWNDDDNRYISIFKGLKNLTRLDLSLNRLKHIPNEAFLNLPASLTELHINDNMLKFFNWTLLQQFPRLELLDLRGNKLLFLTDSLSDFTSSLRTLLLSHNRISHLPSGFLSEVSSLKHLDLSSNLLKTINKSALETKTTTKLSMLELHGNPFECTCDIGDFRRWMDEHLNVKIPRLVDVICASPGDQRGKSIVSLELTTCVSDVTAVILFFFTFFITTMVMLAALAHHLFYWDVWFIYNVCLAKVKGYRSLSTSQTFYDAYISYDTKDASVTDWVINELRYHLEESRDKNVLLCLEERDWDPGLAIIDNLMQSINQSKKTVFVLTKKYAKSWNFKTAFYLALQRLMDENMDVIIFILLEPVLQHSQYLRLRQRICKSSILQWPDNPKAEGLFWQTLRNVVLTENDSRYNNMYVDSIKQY
Description: as §1, §2

[1] = hTLR7 HEK-Blue cells, TLR7 ligand Gardiquimod 10 µM, 20 hours, SEAP by Quanti-blue, class symbols, read-out: HEK-Blue hTLR7 IC50
[2] = hTLR8 HEK-Blue cells, TLR8 ligand 10 µM, 20 hours, SEAP by Quanti-blue, class symbols, read-out: HEK-Blue hTLR8 IC50

| Compound | IC50 (human TLR7; [1]) [µM] | IC50 (human TLR8; [2]) [µM] | other results |
| --- | --- | --- | --- |
| C[C@@H]1CN(c2ccc(C#N)n3ncc(F)c23)Cc2c3c(nn21)CN(CC(=O)N[C@H]1CNC[C@H]1F)[C@@H](C)C3 [Example I-106, 2-((4R,9S)-2-(7-cyano-3-fluoropyrazolo[1,5-a]pyridin-4-yl)-4,9-dimethyl-1,2,3,4,9,10-hexahydropyrido[3',4':3,4]pyrazolo[1,5-a]pyrazin-8(7H)-yl)-N-((3S,4R)-4-fluoropyrrolidin-3-yl)acetamide] | < 0.05 | < 0.1 |  |
| C[C@@H]1CN(c2ccc(C#N)n3ncc(F)c23)Cc2c3c(nn21)C[C@@](C)(N1CCC(O)C1)CC3 (stereo partly drawn) [Example I-188, 3-Fluoro-4-((4R,8S)-8-(3-hydroxypyrrolidin-1-yl)-4,8-dimethyl-3,4,7,8,9,10-hexahydropyrazino[1,2-b]indazol-2(1H)-yl)pyrazolo[1,5-a]pyridine-7-carbonitrile] | > 0.05 | < 0.1 |  |
| C[C@@H]1CN(c2ccc(C#N)n3ncc(F)c23)Cc2c3c(nn21)[C@@H](C)NCC3 [Example I-21, 4-((4R,7R)-4,7-dimethyl-3,4,7,8,9,10-hexahydropyrido[3',4':3,4]pyrazolo[1,5-a]pyrazin-2(1H)-yl)-3-fluoropyrazolo[1,5-a]pyridine-7-carbonitrile] | < 0.05 | < 0.1 |  |
| CC1Cc2c(nn3c2CN(c2ccc(C#N)n4ncc(F)c24)C[C@H]3C)C(C)N1 (single isomer, unassigned) [Example I-88b] | < 0.05 | > 0.1 |  |
| C[C@@H]1Cc2c(nn3c2CN(c2ccc(C#N)n4ncc(F)c24)C[C@H]3C)[C@H](C)N1 [Example I-59, 3-Fluoro-4-((4R,7S,9R)-4,7,9-trimethyl-3,4,7,8,9,10-hexahydropyrido[3',4':3,4]pyrazolo[1,5-a]pyrazin-2(1H)-yl)pyrazolo[1,5-a]pyridine-7-carbonitrile] | < 0.05 | > 0.1 |  |
| C[C@@H]1CN(c2ccc(C#N)n3ncc(F)c23)Cc2c3c(nn21)CCC(C)(N)C3 (single isomer, unassigned) [Example I-80b] | > 0.05 | > 0.1 |  |
| C[C@@H]1CN(c2ccc(C#N)n3ncc(F)c23)Cc2c3c(nn21)CN([C@@H]1CCNC1=O)[C@@H](C)C3 [Example I-155, 4-((4R,9S)-4,9-dimethyl-8-((R)-2-oxopyrrolidin-3-yl)-3,4,7,8,9,10-hexahydropyrido[3',4':3,4]pyrazolo[1,5-a]pyrazin-2(1H)-yl)-3-fluoropyrazolo[1,5-a]pyridine-7-carbonitrile] | < 0.05 | > 0.1 |  |
| 3-Fluoro-4-((4R,9S)-8-(2-((S)-3-fluoropyrrolidin-1-yl)-2-oxoethyl)-4,9-dimethyl-3,4,7,8,9,10-hexahydropyrido[3',4':3,4]pyrazolo[1,5-a]pyrazin-2(1H)-yl)pyrazolo[1,5-a]pyridine-7-carbonitrile [Example I-153] | < 0.05 | > 0.1 |  |
| C[C@@H]1CN(c2ccc(C#N)n3ncc(F)c23)Cc2c3c(nn21)CN(CC(=O)N1CCN(C2CC2)CC1)[C@@H](C)C3 [Example I-136, 4-((4R,9S)-8-(2-(4-cyclopropylpiperazin-1-yl)-2-oxoethyl)-4,9-dimethyl-3,4,7,8,9,10-hexahydropyrido[3',4':3,4]pyrazolo[1,5-a]pyrazin-2(1H)-yl)-3-fluoropyrazolo[1,5-a]pyridine-7-carbonitrile] | < 0.05 | < 0.1 |  |
| C[C@@H]1CN(c2ccc(C#N)n3ncc(F)c23)Cc2c3c(nn21)CN(CC(=O)N1CCC1)[C@@H](C)C3 [Example I-138, 4-((4R,9S)-8-(2-(azetidin-1-yl)-2-oxoethyl)-4,9-dimethyl-3,4,7,8,9,10-hexahydropyrido [3',4':3,4]pyrazolo[1,5-a]pyrazin-2(1H)-yl)-3-fluoropyrazolo[1,5-a]pyridine-7-carbonitrile] |  |  | IC50 (human TLR7; read-out: HEK-Blue hTLR7 IC50): < 0.05 µM; IC50 (human TLR8; read-out: HEK-Blue hTLR8 IC50): > 0.1 µM |
| C[C@@H]1CN(c2ccc(C#N)n3ncc(F)c23)Cc2c3c(nn21)CNC(C(C)(C)O)C3 (stereo partly drawn) [Example I-74, 3-Fluoro-4-((4R)-9-(2-hydroxypropan-2-yl)-4-methyl-3,4,7,8,9,10-hexahydropyrido [3',4':3,4]pyrazolo[1,5-a]pyrazin-2(1H)-yl)pyrazolo[1,5-a]pyridine-7-carbonitrile] | > 0.05 | > 0.1 |  |
| C[C@@H]1CN(c2ccc(C#N)n3ncc(F)c23)Cc2c3c(nn21)C(C)(C)NCC3 [Example I-45, (R)-3-Fluoro-4-(4,7,7-trimethyl-3,4,7,8,9,10-hexahydropyrido[3',4':3,4]pyrazolo[1,5-a]pyrazin-2(1H)-yl)pyrazolo[1,5-a]pyridine-7-carbonitrile] | < 0.05 | < 0.1 |  |
| C[C@@H]1Cc2c(nn3c2CN(c2ccc(C#N)n4ncc(F)c24)C[C@H]3C)[C@H](C)N1CC(N)=O [Example I-165, 2-((4R,7S,9R)-2-(7-cyano-3-fluoropyrazolo[1,5-a]pyridin-4-yl)-4,7,9-trimethyl-1,2,3,4,9,10-hexahydropyrido[3',4':3,4]pyrazolo[1,5-a]pyrazin-8(7H)-yl)acetamide] | < 0.05 | > 0.1 |  |
| C[C@@H]1CN(c2ccc(C#N)n3ncc(F)c23)Cc2c3c(nn21)CN1C(=O)OC[C@@H]1C3 [Example I-95, 3-Fluoro-4-((8R,12aS)-8-methyl-3-oxo-1,8,9,11,12,12a-hexahydro-3H,5H,10H-oxazolyl [3 ‴,4 ':1'6']pyridine and [3',4':3,4]pyrazole [1,5-a]pyrazine-10-yl) pyrazole [1,5-a]pyridine-7-nitrile] |  |  | IC50 (human TLR7; HEK-Blue hTLR7 IC50 (µM)): > 0.05 µM; IC50 (human TLR8; HEK-Blue hTLR8 IC50 (µM)): > 0.1 µM |
| C[C@@H]1CN(c2ccc(C#N)n3ncc(F)c23)Cc2c3c(nn21)CN(CC1(C(N)=O)CC1)[C@@H](C)C3 [Example I-204, 1-(((4R,9S)-2-(7-cyano-3-fluoropyrazolo [1,5-a]pyridin-4-yl)-4,9-dimethyl-1,2,3,4,9,10-hexahydropyrido[3',4':3,4]pyrazolo[1,5-a]pyrazin-8(7H)-yl)methyl)cyclopropane-1-carboxamide] | < 0.05 | > 0.1 |  |
